# In PubChem BioAssay AID1347040 (Sanford-Burnham Center for Chemical Genomics, 2019):
# Active and inactive are the calls of the source.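 The calls were made as follows: active = IC50 at or below 20 µM (some results past the limit were not filed as active); inactive = the rest.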
# Biological target: Fatty acid synthase (Homo sapiens) (UniProt P49327)
# Experiment: FAS thioesterase domain inhibitors, dose response, biochemical, fluorescence intensity, OMFH substrate (AID 1347040)
# Settings: recombinant FAS-TE, OMFH fluorogenic substrate
# Fatty acid synthase (Homo sapiens), sequence (P49327 whole entry, looked up, the tested form may be a part): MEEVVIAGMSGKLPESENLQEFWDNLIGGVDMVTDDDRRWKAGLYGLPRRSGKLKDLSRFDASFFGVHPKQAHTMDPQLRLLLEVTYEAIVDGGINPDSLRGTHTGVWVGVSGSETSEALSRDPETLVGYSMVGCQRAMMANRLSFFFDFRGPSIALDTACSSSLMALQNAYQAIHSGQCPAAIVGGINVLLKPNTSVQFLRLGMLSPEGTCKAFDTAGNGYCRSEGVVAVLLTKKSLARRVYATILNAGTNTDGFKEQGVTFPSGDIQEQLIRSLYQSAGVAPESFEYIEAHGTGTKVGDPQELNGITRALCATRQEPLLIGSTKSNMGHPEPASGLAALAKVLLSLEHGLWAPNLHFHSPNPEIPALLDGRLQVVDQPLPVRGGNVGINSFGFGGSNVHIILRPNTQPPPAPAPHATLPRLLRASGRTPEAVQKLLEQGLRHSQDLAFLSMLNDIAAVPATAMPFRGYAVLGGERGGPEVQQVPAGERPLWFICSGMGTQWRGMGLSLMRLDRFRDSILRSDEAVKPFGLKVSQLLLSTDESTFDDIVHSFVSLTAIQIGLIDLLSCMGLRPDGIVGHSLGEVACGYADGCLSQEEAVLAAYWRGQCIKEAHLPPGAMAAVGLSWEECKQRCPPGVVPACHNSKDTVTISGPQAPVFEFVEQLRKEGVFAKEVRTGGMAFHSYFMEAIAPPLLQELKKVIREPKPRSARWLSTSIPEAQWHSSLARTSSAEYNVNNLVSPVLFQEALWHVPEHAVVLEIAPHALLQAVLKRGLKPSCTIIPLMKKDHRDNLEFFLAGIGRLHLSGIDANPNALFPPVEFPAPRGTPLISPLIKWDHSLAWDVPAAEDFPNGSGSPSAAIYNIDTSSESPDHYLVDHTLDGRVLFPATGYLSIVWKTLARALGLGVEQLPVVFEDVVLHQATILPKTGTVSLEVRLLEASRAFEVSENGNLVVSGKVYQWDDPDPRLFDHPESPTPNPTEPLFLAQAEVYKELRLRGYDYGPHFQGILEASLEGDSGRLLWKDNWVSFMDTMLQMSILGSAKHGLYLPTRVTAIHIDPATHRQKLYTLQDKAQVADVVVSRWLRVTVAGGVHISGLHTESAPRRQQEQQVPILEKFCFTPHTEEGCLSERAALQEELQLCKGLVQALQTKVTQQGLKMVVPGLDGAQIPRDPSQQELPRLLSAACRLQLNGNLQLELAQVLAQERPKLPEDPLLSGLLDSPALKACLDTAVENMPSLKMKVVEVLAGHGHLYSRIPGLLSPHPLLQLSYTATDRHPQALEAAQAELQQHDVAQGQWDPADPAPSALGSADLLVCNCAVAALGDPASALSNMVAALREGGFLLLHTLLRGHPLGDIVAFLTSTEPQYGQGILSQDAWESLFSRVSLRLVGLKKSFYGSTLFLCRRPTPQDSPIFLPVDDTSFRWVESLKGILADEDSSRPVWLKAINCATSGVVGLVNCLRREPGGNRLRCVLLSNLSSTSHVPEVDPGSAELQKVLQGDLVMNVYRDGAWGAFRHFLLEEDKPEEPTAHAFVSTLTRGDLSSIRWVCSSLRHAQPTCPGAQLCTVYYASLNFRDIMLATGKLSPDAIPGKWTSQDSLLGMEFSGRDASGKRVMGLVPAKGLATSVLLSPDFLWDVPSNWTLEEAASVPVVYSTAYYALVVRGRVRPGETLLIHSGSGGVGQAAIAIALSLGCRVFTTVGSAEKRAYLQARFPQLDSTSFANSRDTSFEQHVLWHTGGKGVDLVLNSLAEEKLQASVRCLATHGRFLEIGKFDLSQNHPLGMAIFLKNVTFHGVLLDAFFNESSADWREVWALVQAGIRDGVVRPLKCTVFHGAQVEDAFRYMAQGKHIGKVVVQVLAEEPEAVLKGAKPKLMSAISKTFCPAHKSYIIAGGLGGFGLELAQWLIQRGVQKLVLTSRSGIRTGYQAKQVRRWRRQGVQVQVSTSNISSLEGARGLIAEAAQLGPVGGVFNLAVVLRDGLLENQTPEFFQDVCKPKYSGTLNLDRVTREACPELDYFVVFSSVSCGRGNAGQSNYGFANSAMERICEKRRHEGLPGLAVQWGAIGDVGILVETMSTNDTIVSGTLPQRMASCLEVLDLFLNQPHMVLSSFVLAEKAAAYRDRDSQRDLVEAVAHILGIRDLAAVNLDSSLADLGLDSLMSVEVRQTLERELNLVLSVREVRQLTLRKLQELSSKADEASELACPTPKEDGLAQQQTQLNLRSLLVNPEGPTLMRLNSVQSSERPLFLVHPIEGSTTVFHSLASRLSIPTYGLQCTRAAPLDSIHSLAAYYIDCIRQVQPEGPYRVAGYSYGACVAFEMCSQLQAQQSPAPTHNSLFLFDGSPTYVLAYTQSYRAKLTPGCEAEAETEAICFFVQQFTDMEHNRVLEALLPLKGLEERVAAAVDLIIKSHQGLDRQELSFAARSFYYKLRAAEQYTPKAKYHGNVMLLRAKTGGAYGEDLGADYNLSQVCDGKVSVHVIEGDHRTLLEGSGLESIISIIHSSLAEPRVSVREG
row,IC50,SMILES
1,inactive,O=C(Cc1ccc(S(=O)(=O)N2CCOCC2)s1)N1CCN(S(=O)(=O)c2ccc(F)cc2)CC1
2,> 30 µM (inactive),O=C(Cc1ccc(S(=O)(=O)N2CCOCC2)s1)NCc1ccccc1
3,5.8 µM,CC(C)c1nc(-c2ccc(S(=O)(=O)N3CCOCC3)cc2)cs1
4,> 30 µM (inactive),CC(C)S(=O)(=O)N1CCN(C(=O)Cc2ccc(S(=O)(=O)N3CCOCC3)s2)CC1
5,33.2 µM,Cc1cc(C)c(S(=O)(=O)N2CCN(C(=O)Cc3ccc(S(=O)(=O)N4CCOCC4)s3)CC2)c(C)c1
6,0.291 µM,O=S(=O)(c1ccc(-c2csc(-c3ccc(F)cc3)n2)cc1)N1CCOCC1
7,14.3 µM,CC(C)(C)c1ccc(CNC(=O)Cc2ccc(S(=O)(=O)N3CCOCC3)s2)cc1
8,> 30 µM (inactive),CS(=O)(=O)N1CCN(C(=O)Cc2ccc(S(=O)(=O)N3CCOCC3)s2)CC1
9,44.6 µM,O=C(Cc1ccc(S(=O)(=O)N2CCOCC2)s1)N1CCN(S(=O)(=O)c2ccccc2)CC1
10,> 30 µM (inactive),O=C(Cc1ccc(S(=O)(=O)N2CCOCC2)s1)N1CCN(S(=O)(=O)Cc2ccccc2)CC1

# More lines, now with the values behind:
row,SMILES,IC50
1,CCc1nc(-c2ccc(S(=O)(=O)N(CC)CC)cc2)cs1,51.7 µM
2,CCN(CC)S(=O)(=O)c1ccc(-c2csc(Cc3ccccc3OC)n2)cc1,5.38 µM
3,CCN(CC)S(=O)(=O)c1ccc(-c2csc(Cc3cccc(C(F)(F)F)c3)n2)cc1,3.26 µM
4,CCN(CC)S(=O)(=O)c1ccc(-c2csc(Cc3cccc(F)c3)n2)cc1,1.17 µM
5,CCN(CC)S(=O)(=O)c1ccc(-c2csc(C(C)(C)C)n2)cc1,2.6 µM
6,CCN(CC)S(=O)(=O)c1ccc(-c2csc(-c3ccc(Cl)cc3)n2)cc1,10 µM
7,CCN(CC)S(=O)(=O)c1ccc(-c2csc(-c3ccc(Br)cc3C)n2)cc1,17.2 µM
8,CCN(CC)S(=O)(=O)c1ccc(-c2csc(Cc3ccc(F)cc3)n2)cc1,0.918 µM
9,CCN(CC)S(=O)(=O)c1ccc(-c2csc(C(c3ccccc3)c3ccccc3)n2)cc1,5.28 µM
10,CCN(CC)S(=O)(=O)c1ccc(-c2csc(-c3ccc(Br)cc3)n2)cc1,10 µM
11,CCN(CC)S(=O)(=O)c1ccc(-c2csc(Cc3cccc(I)c3)n2)cc1,8.69 µM
12,CCN(CC)S(=O)(=O)c1ccc(-c2csc(C(C)C)n2)cc1,4.2 µM
13,CCN(CC)S(=O)(=O)c1ccc(-c2csc(Cc3ccccc3F)n2)cc1,0.631 µM
14,CCN(CC)S(=O)(=O)c1ccc(-c2csc(-c3ccc(F)cc3)n2)cc1,0.5 µM
15,CCN(CC)S(=O)(=O)c1ccc(-c2csc(-c3cccc(Br)c3)n2)cc1,5.04 µM
